From a compilation of properties of binary mixtures (doi:10.1016/j.jct.2020.106093)

Test: xn = mol fraction of the nth substance listed
Settings: 100.9 kPa

Work on `CC(=O)[O-].CC[NH2+]CC` + O yielded a viscosity (283.15 K, x1 = 0.015) of 2.07 mPa·s, a viscosity (283.15 K, x1 = 0.055) of 5.43 mPa·s and a viscosity (283.15 K, x1 = 0.119) of 15.42 mPa·s. The viscosity (283.15 K, x1 = 0.549) was 143.2 mPa·s, the viscosity (283.15 K, x1 = 0.714) was 161.6 mPa·s and the viscosity (285.65 K, x1 = 0.015) was 1.92 mPa·s. For the same molecule, the viscosity (285.65 K, x1 = 0.055) was 4.91 mPa·s, the viscosity (285.65 K, x1 = 0.119) was 13.69 mPa·s and the viscosity (285.65 K, x1 = 0.168) was 24.1 mPa·s. For the same molecule, the viscosity (285.65 K, x1 = 0.24) was 47.8 mPa·s, the viscosity (285.65 K, x1 = 0.351) was 79.3 mPa·s and the viscosity (285.65 K, x1 = 0.549) was 122.5 mPa·s. The viscosity (285.65 K, x1 = 0.714) was 138.5 mPa·s, the viscosity (288.15 K, x1 = 0.015) was 1.78 mPa·s and the viscosity (288.15 K, x1 = 0.055) was 4.46 mPa·s. The viscosity (288.15 K, x1 = 0.119) was 12.18 mPa·s, the viscosity (288.15 K, x1 = 0.168) was 21.1 mPa·s and the viscosity (288.15 K, x1 = 0.24) was 41.6 mPa·s. It also gave a viscosity (288.15 K, x1 = 0.351) of 68.3 mPa·s, a viscosity (288.15 K, x1 = 0.714) of 119 mPa·s and a viscosity (290.65 K, x1 = 0.015) of 1.65 mPa·s. The viscosity (290.65 K, x1 = 0.055) was 4.05 mPa·s, the viscosity (290.65 K, x1 = 0.119) was 10.87 mPa·s and the viscosity (290.65 K, x1 = 0.168) was 18.7 mPa·s. The viscosity (290.65 K, x1 = 0.24) was 36.3 mPa·s, the viscosity (290.65 K, x1 = 0.351) was 59 mPa·s and the viscosity (290.65 K, x1 = 0.549) was 90.6 mPa·s. For the same molecule, the viscosity (290.65 K, x1 = 0.714) was 102.7 mPa·s, the speed of sound (293.15 K, x1 = 0.015) was 1580 m/s and the viscosity (293.15 K, x1 = 0.015) was 1.538 mPa·s. For the same molecule, the speed of sound (293.15 K, x1 = 0.055) was 1761 m/s, the viscosity (293.15 K, x1 = 0.055) was 3.73 mPa·s and the speed of sound (293.15 K, x1 = 0.119) was 1844 m/s. For the same molecule, the viscosity (293.15 K, x1 = 0.119) was 9.74 mPa·s, the speed of sound (293.15 K, x1 = 0.168) was 1826 m/s and the viscosity (293.15 K, x1 = 0.168) was 16.49 mPa·s. The speed of sound (293.15 K, x1 = 0.24) was 1768 m/s, the viscosity (293.15 K, x1 = 0.24) was 31.8 mPa·s and the speed of sound (293.15 K, x1 = 0.35) was 1704 m/s. For the same molecule, the viscosity (293.15 K, x1 = 0.351) was 51.2 mPa·s, the speed of sound (293.15 K, x1 = 0.549) was 1597 m/s and the viscosity (293.15 K, x1 = 0.549) was 78.4 mPa·s. The speed of sound (293.15 K, x1 = 0.708) was 1554 m/s, the viscosity (293.15 K, x1 = 0.714) was 89.2 mPa·s and the speed of sound (293.15 K, x1 = 0.835) was 1523 m/s. It also gave a viscosity (295.65 K, x1 = 0.015) of 1.437 mPa·s, a viscosity (295.65 K, x1 = 0.055) of 3.4 mPa·s and a viscosity (295.65 K, x1 = 0.119) of 8.75 mPa·s. For the same molecule, the viscosity (295.65 K, x1 = 0.24) was 28 mPa·s, the viscosity (295.65 K, x1 = 0.351) was 44.7 mPa·s and the viscosity (295.65 K, x1 = 0.549) was 68.4 mPa·s. It also gave a viscosity (295.65 K, x1 = 0.714) of 77.8 mPa·s, an electrical conductivity (298.15 K, x1 = 0.007) of 1.55 S/m and an electrical conductivity (298.15 K, x1 = 0.015) of 2.35 S/m. The speed of sound (298.15 K, x1 = 0.015) was 1588 m/s, the viscosity (298.15 K, x1 = 0.015) was 1.346 mPa·s and the electrical conductivity (298.15 K, x1 = 0.054) was 3.1 S/m. The speed of sound (298.15 K, x1 = 0.055) was 1756 m/s, the viscosity (298.15 K, x1 = 0.055) was 3.12 mPa·s and the speed of sound (298.15 K, x1 = 0.119) was 1832 m/s. For the same molecule, the viscosity (298.15 K, x1 = 0.119) was 7.91 mPa·s, the electrical conductivity (298.15 K, x1 = 0.12) was 2.48 S/m and the electrical conductivity (298.15 K, x1 = 0.168) was 1.73 S/m. For the same molecule, the speed of sound (298.15 K, x1 = 0.168) was 1813 m/s, the viscosity (298.15 K, x1 = 0.168) was 13.13 mPa·s and the electrical conductivity (298.15 K, x1 = 0.24) was 0.98 S/m. The speed of sound (298.15 K, x1 = 0.24) was 1754 m/s, the viscosity (298.15 K, x1 = 0.24) was 24.8 mPa·s and the viscosity (298.15 K, x1 = 0.351) was 39.3 mPa·s. It also gave an electrical conductivity (298.15 K, x1 = 0.353) of 0.708 S/m, a speed of sound (298.15 K, x1 = 0.549) of 1583 m/s and a viscosity (298.15 K, x1 = 0.549) of 59.9 mPa·s. For the same molecule, the electrical conductivity (298.15 K, x1 = 0.55) was 0.365 S/m, the electrical conductivity (298.15 K, x1 = 0.714) was 0.26 S/m and the viscosity (298.15 K, x1 = 0.714) was 68.2 mPa·s. It also gave a speed of sound (298.15 K, x1 = 0.835) of 1507 m/s, an electrical conductivity (298.15 K, x1 = 0.838) of 0.231 S/m and an electrical conductivity (298.15 K, x1 = 0.945) of 0.23 S/m. For the same molecule, the viscosity (300.65 K, x1 = 0.015) was 1.263 mPa·s, the viscosity (300.65 K, x1 = 0.055) was 2.88 mPa·s and the viscosity (300.65 K, x1 = 0.119) was 7.17 mPa·s. The viscosity (300.65 K, x1 = 0.24) was 21.9 mPa·s, the viscosity (300.65 K, x1 = 0.351) was 34.6 mPa·s and the viscosity (300.65 K, x1 = 0.549) was 52.4 mPa·s. It also gave a viscosity (300.65 K, x1 = 0.714) of 60 mPa·s, an electrical conductivity (303.15 K, x1 = 0.007) of 1.69 S/m and an electrical conductivity (303.15 K, x1 = 0.015) of 3.24 S/m. The speed of sound (303.15 K, x1 = 0.015) was 1595 m/s, the viscosity (303.15 K, x1 = 0.015) was 1.189 mPa·s and the electrical conductivity (303.15 K, x1 = 0.054) was 4.76 S/m. The speed of sound (303.15 K, x1 = 0.055) was 1751 m/s, the viscosity (303.15 K, x1 = 0.055) was 2.67 mPa·s and the speed of sound (303.15 K, x1 = 0.119) was 1819 m/s. The viscosity (303.15 K, x1 = 0.119) was 6.51 mPa·s, the electrical conductivity (303.15 K, x1 = 0.12) was 3.2 S/m and the electrical conductivity (303.15 K, x1 = 0.24) was 1.5 S/m. It also gave a speed of sound (303.15 K, x1 = 0.24) of 1741 m/s, a viscosity (303.15 K, x1 = 0.24) of 19.6 mPa·s and a speed of sound (303.15 K, x1 = 0.35) of 1677 m/s. It also gave an electrical conductivity (303.15 K, x1 = 0.353) of 0.823 S/m, a speed of sound (303.15 K, x1 = 0.549) of 1569 m/s and a viscosity (303.15 K, x1 = 0.549) of 46.3 mPa·s. It also gave an electrical conductivity (303.15 K, x1 = 0.55) of 0.473 S/m, a speed of sound (303.15 K, x1 = 0.708) of 1524 m/s and an electrical conductivity (303.15 K, x1 = 0.714) of 0.365 S/m. The viscosity (303.15 K, x1 = 0.714) was 53 mPa·s, the electrical conductivity (303.15 K, x1 = 0.838) was 0.297 S/m and the electrical conductivity (303.15 K, x1 = 0.945) was 0.29 S/m. For the same molecule, the viscosity (305.65 K, x1 = 0.015) was 1.121 mPa·s, the viscosity (305.65 K, x1 = 0.055) was 2.48 mPa·s and the viscosity (305.65 K, x1 = 0.119) was 5.94 mPa·s. It also gave a viscosity (305.65 K, x1 = 0.168) of 9.61 mPa·s, a viscosity (305.65 K, x1 = 0.351) of 27.2 mPa·s and a viscosity (305.65 K, x1 = 0.549) of 41.1 mPa·s. For the same molecule, the viscosity (305.65 K, x1 = 0.714) was 47 mPa·s, the speed of sound (308.15 K, x1 = 0.015) was 1601 m/s and the viscosity (308.15 K, x1 = 0.015) was 1.059 mPa·s. It also gave a speed of sound (308.15 K, x1 = 0.055) of 1745 m/s, a viscosity (308.15 K, x1 = 0.055) of 2.31 mPa·s and a speed of sound (308.15 K, x1 = 0.119) of 1807 m/s. For the same molecule, the viscosity (308.15 K, x1 = 0.119) was 5.44 mPa·s, the speed of sound (308.15 K, x1 = 0.168) was 1786 m/s and the viscosity (308.15 K, x1 = 0.168) was 8.71 mPa·s. It also gave a speed of sound (308.15 K, x1 = 0.24) of 1727 m/s, a viscosity (308.15 K, x1 = 0.24) of 15.67 mPa·s and a speed of sound (308.15 K, x1 = 0.35) of 1664 m/s. It also gave a viscosity (308.15 K, x1 = 0.351) of 24.2 mPa·s, a speed of sound (308.15 K, x1 = 0.549) of 1555 m/s and a viscosity (308.15 K, x1 = 0.549) of 36.6 mPa·s. It also gave a speed of sound (308.15 K, x1 = 0.708) of 1509 m/s, a viscosity (308.15 K, x1 = 0.714) of 41.9 mPa·s and a viscosity (310.65 K, x1 = 0.015) of 1.003 mPa·s. The viscosity (310.65 K, x1 = 0.055) was 2.15 mPa·s, the viscosity (310.65 K, x1 = 0.119) was 5 mPa·s and the viscosity (310.65 K, x1 = 0.168) was 7.94 mPa·s. It also gave a viscosity (310.65 K, x1 = 0.351) of 21.7 mPa·s, a viscosity (310.65 K, x1 = 0.714) of 37.4 mPa·s and a viscosity (310.65 K, x1 = 0.84) of 38 mPa·s. The speed of sound (313.15 K, x1 = 0.015) was 1605 m/s, the viscosity (313.15 K, x1 = 0.015) was 0.952 mPa·s and the speed of sound (313.15 K, x1 = 0.055) was 1739 m/s. The viscosity (313.15 K, x1 = 0.055) was 2.01 mPa·s, the speed of sound (313.15 K, x1 = 0.119) was 1794 m/s and the viscosity (313.15 K, x1 = 0.119) was 4.6 mPa·s. The speed of sound (313.15 K, x1 = 0.168) was 1772 m/s, the viscosity (313.15 K, x1 = 0.168) was 7.26 mPa·s and the speed of sound (313.15 K, x1 = 0.24) was 1713 m/s. The viscosity (313.15 K, x1 = 0.24) was 12.76 mPa·s and the speed of sound (313.15 K, x1 = 0.35) was 1650 m/s.
